This passage reports Kd and inhibition results from patent US20260183407A1, “DYRK/CLK PROTACS AND USES THEREOF” (Arizona Board of Regents on Behalf of the University of …, priority 2022, published 2026).

Assay [1] deals with T1, DYRK1B (Homo sapiens, UniProt Q9Y463).
T1 construct: purchased Eurofins; host or cells: E. coli BL21-derived (T7 phage display) or HEK-293
In words: KdELECT kinase binding assay (Eurofins), DYRK1B. Particulars: 11-point 3-fold dilution series, qPCR readout; read-out: Binding Affinity (Kd) DYRK1B. The procedure: (§1) KDs were obtained from Eurofins who used the following procedure: Kinase tagged T7 phase strains were prepared in an E. coli host derived from the BL21 strain. E. coli were grown to log-phase and infected with T7 phage and incubated with shaking at 32° C. until lysis. The lysates were centrifuged and filtered to remove cell debris. The remaining kinases were produced in HEK-293 cells and subsequently tagged with DNA for qPCR detection. Streptavidin-coated magnetic beads were treated with biotinylated small molecule ligands for 30 minutes at room temperature to generate affinity resins for kinase assays. The liganded beads were blocked with excess biotin and washed with locking buffer (SeaBlock (Pierce), 1% BSA, 0.05% Tween 20, 1 mM DTT) to remove unbound ligand and to reduce non-specific binding. Binding reactions were assembled by combining kinases, liganded affinity beads, and test compounds in 1× binding buffer (20% SeaBlock, 0.17× PBS, 0.05% Tween 20, 6 mM DTT). Test compounds were prepared as 111X stocks in 100% DMSO. Kds were determined using a 11-poin 3-fold compound dilution series with three DMSO control points. All compounds for Kd measurements are distributed by acoustic transfer (non-contact dispensing) in 100% DMSO. The compounds were then diluted directly into the assays such that the final concentration of DMSO was 0.9%. All reactions performed in polypropylene 384-well plate. Each was a final volume of 0.02 mL. The assay plates were incubated at room temperature with shaking for 1 hour and the affinity beads were washed with wash buffer (1×PBS, 0.05% Tween 20). The beads were then resuspended in elution buffer (1X PBS, 0.05% Tween 20, 0.5 µM nonbiotinylated affinity ligand) and incubated at room temperature with shaking for 30 minutes. The kinase concentration in the eluates was measured by qPCR.

The target in assay [2] is T2, DYRK1A (Homo sapiens, UniProt Q13627).
T2 construct: purchased Eurofins; host or cells: E. coli BL21-derived (T7 phage display) or HEK-293
As to the kind of experiment: KdELECT kinase binding assay (Eurofins), DYRK1A. The settings on record: 11-point 3-fold dilution series, qPCR readout; read-out: Binding Affinity (Kd) DYRK1A. On the procedure:
as §1

The target of assay [3] is T2, DYRK1A. In words: HiBiT split luciferase assay of targeted degradation of DYRK1A in Flp-In T-REx 293 cells. The settings on record: 300 nM compound, 24 h, HiBiT-tagged DYRK1A in Flp-In T-REx 293 cells, normalized to vehicle; read-out: Relative Degradation at 300 nM DYRK1A. The assay is classed as cell-based. The source says:
(§2) The Flp-In T-REx 293 Cell Line and the pcDNA5/FRT/TO vector (Invitrogen) were used to generate stable cell clones for tetracyclin-inducible expression of DYRK1A and DYRK1B. These cells contain a single stably integrated Flp recognition target (FRT) site, which allows for site-specific integration of the expression cassette by the Flp (Flippase) recombinase. DYRK1 constructs were designed to contain a C-terminal HiBiT tag for quantitative detection of HiBiT-tagged proteins in cellular lysates with the help a split luciferase assay (Nano-Glo HiBiT Lytic Detection System, Promega). To monitor the targeted degradation of DYRK1A or DYRK1B, cells were seeded in 96-well plates (10,000 cells/per well) and treated with doxycyclineinal concentration 2 μg/ml) to induce DYRK1 expression. Compounds with presumed PROTAC activity were administered 24 h after seeding. After further incubation for 24 h, cells were grossly and microscopically inspected for overt toxicity. Cells were lysed in 100 μL ice-cold passive lysis buffer (PLB, Promega) by orbital shaking (30 min on ice) before lysates were centrifuged in PCR tube (20 min 20,000 g, RT). A 10 μl aliquot of the supernatant was subjected to the HiBiT lytic assay. Luminescence was quantified in an Orion Microplate luminometer (Berthold Detection System, Germany). All compounds were tested in duplicate or triplicate wells (technical replicates) and at least two independent experiments. Relative degradation was calculated by normalization to vehicle-treated control samples.

Assay [4] has as its target T1, DYRK1B. In words: HiBiT split luciferase assay of targeted degradation of DYRK1B in Flp-In T-REx 293 cells. The settings on record: 300 nM compound, 24 h, HiBiT-tagged DYRK1B in Flp-In T-REx 293 cells, normalized to vehicle; read-out: Relative Degradation at 300 nM DYRK1B. The assay is classed as cell-based.
Text: as §2

T1 sequence (Q9Y463 whole entry, species assumed): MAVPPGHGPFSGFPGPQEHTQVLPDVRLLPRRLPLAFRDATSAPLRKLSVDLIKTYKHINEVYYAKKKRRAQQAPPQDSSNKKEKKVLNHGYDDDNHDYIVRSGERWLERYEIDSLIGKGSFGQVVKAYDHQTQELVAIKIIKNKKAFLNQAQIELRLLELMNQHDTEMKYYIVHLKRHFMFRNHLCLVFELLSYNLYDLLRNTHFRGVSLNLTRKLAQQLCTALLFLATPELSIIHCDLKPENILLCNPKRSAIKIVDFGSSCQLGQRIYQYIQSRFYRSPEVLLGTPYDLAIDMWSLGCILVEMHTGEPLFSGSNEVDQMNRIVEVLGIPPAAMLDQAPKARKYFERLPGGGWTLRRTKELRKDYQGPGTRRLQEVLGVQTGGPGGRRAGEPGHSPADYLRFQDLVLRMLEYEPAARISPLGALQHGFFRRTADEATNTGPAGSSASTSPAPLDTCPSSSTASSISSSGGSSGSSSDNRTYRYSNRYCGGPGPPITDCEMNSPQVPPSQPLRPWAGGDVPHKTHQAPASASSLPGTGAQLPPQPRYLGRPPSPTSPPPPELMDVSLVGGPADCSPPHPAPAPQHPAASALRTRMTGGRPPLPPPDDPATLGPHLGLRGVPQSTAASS

For the compound `Cc1ncsc1-c1ccc(CNC(=O)[C@@H]2C[C@@H](O)CN2C(=O)[C@@H](NC(=O)CCOCCOCCN2CCN(c3ccc(-n4c(C)nc5ccc(-c6ccnc(N)c6)nc54)cc3F)CC2)C(C)(C)C)cc1` [Compound 1, (2S,4R)-1-((S)-2-(3-(2-(2-(4-(4-(5-(2-aminopyridin-4-yl)-2-methyl-3H-imidazo[4,5-b]pyridin-3-yl)-2-fluorophenyl)piperazin-1-yl)ethoxy)ethoxy)propanamido)-3,3-dimethylbutanoyl)-4-hydroxy-N-(4-(4-methylthiazol-5-yl)benzyl)pyrrolidine-2-carboxamide], the dissociation constant Kd at DYRK1B [1] and on DYRK1A [2] was less than 10 nM each time. The inhibition at 0.3 µM at DYRK1A [3] and at DYRK1B [4] was less than 30% in each case.

As for `Cc1nc2ccc(-c3ccnc(N)c3)nc2n1-c1ccc(N2CCN(CC#Cc3ccc(N4CCC(C(=O)N5CCC(n6cc(CNc7cccc8c7C(=O)N(C7CCC(=O)NC7=O)C8=O)cn6)CC5)CC4)nc3)CC2)c(F)c1` (stereo not shown) [Compound 18, 4-(((1-(1-(1-(5-(3-(4-(4-(5-(2-aminopyridin-4-yl)-2-methyl-3H-imidazo[4,5-b]pyridin-3-yl)-2-fluorophenyl)piperazin-1-yl)prop-1-yn-1-yl)pyridin-2-yl)piperidine-4-carbonyl)piperidin-4-yl)-1H-pyrazol-4-yl)methyl)amino)-2-(2,6-dioxopiperidin-3-yl)isoindoline-1,3-dione], the Kd at DYRK1B [1] is 10 to 100 nM; at DYRK1A [2], less than 10 nM. For the same compound, the inhibition at 0.3 µM was greater than 60% at DYRK1A [3] and greater than 50% on DYRK1B [4].

Turning to `Cc1nc2ccc(-c3ccnc(N)c3)nc2n1-c1ccc(N2CCN(CC#Cc3cncc(N4CCC(C(=O)N5CCC(n6cc(CNc7cccc8c7C(=O)N(C7CCC(=O)NC7=O)C8=O)cn6)CC5)CC4)n3)CC2)c(F)c1` (stereo not shown) [Compound 32, 4-(((1-(1-(1-(6-(3-(4-(4-(5-(2-aminopyridin-4-yl)-2-methyl-3H-imidazo[4,5-b]pyridin-3-yl)-2-fluorophenyl)piperazin-1-yl)prop-1-yn-1-yl)pyrazin-2-yl)piperidine-4-carbonyl)piperidin-4-yl)-1H-pyrazol-4-yl)methyl)amino)-2-(2,6-dioxopiperidin-3-yl)isoindoline-1,3-dione], the equilibrium dissociation constant (Kd) on DYRK1B [1] and on DYRK1A [2] was 10 to 100 nM throughout. Also, the inhibition at 0.3 µM was greater than 60% at DYRK1A [3] and greater than 50% at DYRK1B [4].

Turning to `Cc1ncsc1-c1ccc(CNC(=O)[C@@H]2C[C@@H](O)CN2C(=O)[C@@H](NC(=O)CCOCCOCCOCCOCCN2CCN(c3ccc(-n4c(C)nc5ccc(-c6ccnc(N)c6)nc54)cc3F)CC2)C(C)(C)C)cc1` [Compound 3, (2S,4R)-1-((S)-1-(4-(4-(5-(2-aminopyridin-4-yl)-2-methyl-3H-imidazo[4,5-b]pyridin-3-yl)-2-fluorophenyl)piperazin-1-yl)-17-(tert-butyl)-15-oxo-3,6,9,12-tetraoxa-16-azaoctadecan-18-oyl)-4-hydroxy-N-(4-(4-methylthiazol-5-yl)benzyl)pyrrolidine-2-carboxamide], the equilibrium dissociation constant (Kd) at DYRK1B [1] and on DYRK1A [2] was less than 10 nM throughout. Besides, the inhibition at 0.3 µM at DYRK1A [3] and on DYRK1B [4] was less than 30% each time.

Turning to `Cc1nc2ccc(-c3ccnc(N)c3)nc2n1-c1ccc(N2CCN(CCOCCOCCOCCNc3cccc4c3C(=O)N(C3CCC(=O)NC3=O)C4=O)CC2)c(F)c1` (stereo not shown) [Compound 6, 4-((2-(2-(2-(2-(4-(4-(5-(2-aminopyridin-4-yl)-2-methyl-3H-imidazo[4,5-b]pyridin-3-yl)-2-fluorophenyl)piperazin-1-yl)ethoxy)ethoxy)ethoxy)ethyl)amino)-2-(2,6-dioxopiperidin-3-yl)isoindoline-1,3-dione], the Kd on DYRK1B [1] and on DYRK1A [2] was less than 10 nM in each case. Moreover, the figures for the inhibition at 0.3 µM on DYRK1A [3] and at DYRK1B [4] were 30 to 60% and less than 30%, respectively.

With `Cc1nc2ccc(-c3ccnc(N)c3)nc2n1-c1ccc(N2CCN(CC#Cc3ccc(N4CCC(C(=O)N5CCC(n6cc(CNc7cccc8c7C(=O)N(C7CCC(=O)N(C)C7=O)C8=O)cn6)CC5)CC4)nc3)CC2)c(F)c1` (stereo not shown) [Compound 31, 4-(((1-(1-(1-(5-(3-(4-(4-(5-(2-aminopyridin-4-yl)-2-methyl-3H-imidazo[4,5-b]pyridin-3-yl)-2-fluorophenyl)piperazin-1-yl)prop-1-yn-1-yl)pyridin-2-yl)piperidine-4-carbonyl)piperidin-4-yl)-1H-pyrazol-4-yl)methyl)amino)-2-(1-methyl-2,6-dioxopiperidin-3-yl)isoindoline-1,3-dione], the inhibition at 0.3 µM at DYRK1A [3] and on DYRK1B [4] was less than 30% in each case.

Take `Cc1nc2ccc(-c3ccnc(N)c3)nc2n1-c1ccc(N2C[C@H]3CN(CC#Cc4ccc(N5CCC(C(=O)N6CCC(n7cc(CNc8cccc9c8C(=O)N(C8CCC(=O)NC8=O)C9=O)cn7)CC6)CC5)nc4)C[C@H]3C2)c(F)c1` (stereo partly drawn) [Compound 22, 4-(((1-(1-(1-(5-(3-((3aR,6aS)-5-(4-(5-(2-aminopyridin-4-yl)-2-methyl-3H-imidazo[4,5-b]pyridin-3-yl)-2-fluorophenyl)hexahydropyrrolo[3,4-c]pyrrol-2 (1H)-yl)prop-1-yn-1-yl)pyridin-2-yl)piperidine-4-carbonyl)piperidin-4-yl)-1H-pyrazol-4-yl)methyl)amino)-2-(2,6-dioxopiperidin-3-yl)isoindoline-1,3-dione]: the results for the inhibition at 0.3 µM at DYRK1A [3] and at DYRK1B [4] were 30 to 60% and less than 30%, respectively.

As to `Cc1nc2ccc(-c3ccnc(N)c3)nc2n1-c1ccc(N2CCN(c3ccc(N4CCC(C(=O)N5CCC(n6cc(CNc7cccc8c7C(=O)N(C7CCC(=O)NC7=O)C8=O)cn6)CC5)CC4)nc3)CC2)c(F)c1` (stereo not shown) [Compound 26, 4-(((1-(1-(1-(5-(4-(4-(5-(2-aminopyridin-4-yl)-2-methyl-3H-imidazo[4,5-b]pyridin-3-yl)-2-fluorophenyl)piperazin-1-yl)pyridin-2-yl)piperidine-4-carbonyl)piperidin-4-yl)-1H-pyrazol-4-yl)methyl)amino)-2-(2,6-dioxopiperidin-3-yl)isoindoline-1,3-dione], the inhibition at 0.3 µM is greater than 60% on DYRK1A [3] and 30 to 50% at DYRK1B [4].

In the case of `Cc1nc2ccc(-c3ccnc(N)c3)nc2n1-c1cc(Cl)c(N2CCN(CC#Cc3ccc(N4CCC(C(=O)N5CCC(n6cc(CNc7cccc8c7C(=O)N(C7CCC(=O)NC7=O)C8=O)cn6)CC5)CC4)nc3)CC2)c(Cl)c1` (stereo not shown) [Compound 27, 4-(((1-(1-(1-(5-(3-(4-(4-(5-(2-aminopyridin-4-yl)-2-methyl-3H-imidazo[4,5-b]pyridin-3-yl)-2,6-dichlorophenyl)piperazin-1-yl)prop-1-yn-1-yl)pyridin-2-yl)piperidine-4-carbonyl)piperidin-4-yl)-1H-pyrazol-4-yl)methyl)amino)-2-(2,6-dioxopiperidin-3-yl)isoindoline-1,3-dione], the inhibition at 0.3 µM at DYRK1A [3] was greater than 60%; on DYRK1B [4] it was less than 30%.

For `Cc1nc2ccc(-c3ccnc(N)c3)nc2n1-c1ccc(N2CCN(C(=O)CCCN3CCC(n4cc(CNc5cccc6c5C(=O)N(C5CCC(=O)NC5=O)C6=O)cn4)CC3)CC2)c(F)c1` (stereo not shown) [Compound 16, 4-(((1-(1-(4-(4-(4-(5-(2-aminopyridin-4-yl)-2-methyl-3H-imidazo[4,5-b]pyridin-3-yl)-2-fluorophenyl)piperazin-1-yl)-4-oxobutyl)piperidin-4-yl)-1H-pyrazol-4-yl)methyl)amino)-2-(2,6-dioxopiperidin-3-yl)isoindoline-1,3-dione], the equilibrium dissociation constant (Kd) at DYRK1B [1] and on DYRK1A [2] was less than 10 nM in each case. Further, the inhibition at 0.3 µM on DYRK1A [3] is 30 to 60%.
